Data on 20 sequences can be found in patent US7531629B2, “Tumor associated antigen peptides and use of same as anti-tumor vaccines” (Yeda Research and Development Co. Ltd., priority 1998, dated 2009).

The subject of assay [1] is RMA-S-HhD cells. In words: CTL from peptide-immunized HhD mice against loaded RMA-S-HhD target cells. As to conditions: for ability to evoke specific CTL responses (lysis of peptide-loaded target cells): additional Uroplakin Ib, II, III peptides, three weekly immunizations, FIGS. 23a-e; for lysis of RMA-S-HhD targets loaded with homologous BA-46 peptide: CTL from HhD mice immunized with BA-46 peptides; for lymphocyte response specifically lysing CRIPTO-1 peptide-loaded target cells: HhD mice immunized with CRIPTO-1 peptide pools, FIGS. 24a-c; for lysis of RMA-S-HhD target cells loaded with MUC-1 peptide: immunization with a pool of the MUC-1-derived synthetic peptides. The class given is in vivo. On the procedure: (§1) Vaccination: Mice were immunized intraperitonealy three times at 7-day intervals, with 2×10^6 irradiated (5,000 rad) tumor cells, or with peptide-loaded RMA-S-HhD-B7.1 transfectants. Peptide loading of RMA-S-HhD-B7.1 cells was performed as follows: After washing the cells 3 times in PBS, the surface expression of HhD monochins was stabilized by a 4 hours culture at 26° C. Synthetic peptides, or peptide extracts were added to 10×10^6 cells in 1 ml of opti-MEM (Gibco) medium to a concentration of 100 μM or 1 mM, respectively. The cells were incubated at 26° C. and for additional 3 hours at 37° C. Peptide loaded RMA-S-HhDσ-σB7.1 cells were irradiated (5000 rad), washed, resuspended in PBS and injected into mice. In mixed synthetic vaccines, RMA-S-HhD-B7.1 cells were loaded separately with each peptide and pooled before vaccination.
(§2) In vitro cytotoxicity assays: Mice were immunized intraperitonealy three times at 7-day intervals, with 2×10^6 irradiated (5,000 rad) tumor cells, or with peptide-loaded RMA-S-HhD-B7.1 transfectants. Spleens were removed on day 10 after the last immunization and splenocytes were restimulated in vitro with either irradiated tumor cells (for mice immunized with tumor cells) or with lymphocytes pulsed with 100 μM synthetic peptides or 1 mM patients-derived extract in opti-MEM (Gibco) medium. Restimulated lymphocytes were maintained in RPMI 1640 medium containing 10% FCS, 1 mM glutamine, combined antibiotics, 1 mM sodium pyruvate, 10 mM HEPES, pH 7.4, 5×10^−5 M β-mercaptoethanol, and 1% nonessential amino acids (RPMI-HEPES medium) for 5 days. Viable lymphocytes (effector cells), were separated by lymphocyte-M (Cedarlane, Ontario, Canada) centrifugation, resuspended in RPMI-HEPES medium, and admixed at different ratios with 5×10^3 peptide loaded RMA-S-HhD cells, previously loaded with different peptides (see vaccination). CTL assays were performed in U-shaped microtiter wells, at 37° C., 5% CO2 for 5 hours. Cultures were terminated by centrifugation at 1,000 rpm for 10 minutes at 4° C. A total of 100 μl of the supernatants was mixed with scintillation fluids and counted in a beta counter. […] Spontaneous release was determined by incubation of 100 μl-labeled target cells with 100 μl of medium. Maximal release was determined by solubilization of target cells in 100 μl 0.1 M NaOH.
CTL induced in HhD mice recognize the same UP II peptides as human PBL: The immunogenicity of Uroplakin homologue peptides was also evaluated in a mouse model, in which the murine MHC class I genes are not expressed (D^b−/−, β2-microglobulin −/−, double knockout) and which is transgenic for a HLA-A2 and human β2-microglobulin monochain (HhD mice). The advantage of a HLA-A2 transgenic mouse model is that CTL epitopes can be detected more easily and reproducibly, without lengthy and repeated in vitro stimulations. The murine MHC knockout mice used herein has the additional advantage that their CTL repertoire is only HLA-A2 restricted and the CTL response against human tumor extract or human cell lines is not masked by a potential xenogeneic response. HhD mice were immunized with the 7 Uroplakin II homologue peptides or with the same TCC peptide extract used for stimulation of patient's PBL. Lymphocytes were obtained from the spleens of these mice and restimulated in vitro once with the corresponding peptides. […]

Assay [2] deals with prostate cancer. As to conditions: DC based vaccine, 51 prostate cancer patients, HLA-A2; cited from earlier work.
In assay [3] the test system is RMA-S-HhD cells. The assay can be described thus: CTL from HhD mice immunized with tumor extracted peptides or DU145-HhD cells against loaded RMA-S-HhD target cells. The class given is cell-based. As to conditions: for recognition and lysis of peptide loaded targets by anti-tumor extract CTL: CTL against breast tumor peptide extracts, E:T 50:1. On the procedure:
as §1
as §2, with “Cultures were terminated by centrifugation at 1,000 rpm for 10 minutes at 4° C.” left out
CTL induced in HhD mice recognize the same UP II peptides as human PBL: The immunogenicity of Uroplakin homologue peptides was also evaluated in a mouse model, in which the murine MHC class I genes are not expressed (D^b−/−, β2-microglobulin −/−, double knockout) and which is transgenic for a HLA-A2 and human β2-microglobulin monochain (HhD mice). The advantage of a HLA-A2 transgenic mouse model is that CTL epitopes can be detected more easily and reproducibly, without lengthy and repeated in vitro stimulations. […]

In assay [4] the test system is T2 cells. The assay can be described thus: CTL assay with patients' PBL resensitized with pooled TCC extracted peptides. As to conditions: CTL from TCC patients' PBL. In kind it is cell-based, human.
The nature of assay [5]: MHC stabilization assay: peptide binding to HhD on RMA-S-HhD cells, indirect FACS. The arrangement: species or system human. As to conditions: peptide loaded RMA-S-HhD cells. On the procedure: Measurement of peptide binding by stabilization of cell surface MHC: Peptide binding to HhD was measured by stabilization of HhD on RMA-S transfectants, using an indirect FACS assay as follows: 5×10^5 peptide loaded TAP-2 deficient RMA-S-HhD cells (see vaccination), were incubated with anti HLA monoclonal antibodies for 30 minutes at 4° C. After washing the cells with PBS-0.5%, BSA+0.1%, sodium azide, the second antibody, goat anti mouse-FITC (Jackson Lab.), was applied for 30 minutes at 4° C. Following washing, the amount of bound antibodies was detected by FACSscan […].
Mouse monoclonal antibodies. B-9-12, w6/32 (anti HLA A, B, C) and B.B7.2 (anti HLA-A2.1) were used for analyses.
Cytotoxic activity of human peripheral blood lymphocytes (PBL) against target cells pulsed with Uroplakin II peptide homologues: The human UP II amino acid sequence was screened for potential HLA-A2 binding, 9 amino acids peptides by a HLA binding motif program. We chose that particular HLA allele because it is present in 45% of the population. Seven 9-mer peptides, which were predicted to bind with high affinity to HLA-A2 were selected and synthesized (Table 1). The binding of these peptides to HLA-A2 was tested by an MHC stabilization assay utilizing TAP negative cells, which can present exogeneously bound peptides. The RMA-S cells (30) transfected by the HhD construct were loaded with various concentrations of UP II peptides and then reacted with anti-HLA antibody. High affinity binding was shown for all 7 peptides by FACS analyses (FIG. 1).

The test system of assay [6] is MDA-MB-157-HhD cells. In words: Lysis of MDA-MB-157-HhD breast carcinoma cells by CTL from immunized HhD mice. The class given is in vitro. As to conditions: CTL from HhD mice immunized with the named substance.

“FILMFIVYA (listed as Homo sapiens) [Uroplakin Ib/B2]”: the “ability to evoke specific CTL responses (lysis of peptide-loaded target cells)” value (“ability to evoke specific CTL responses” for short) in assay [1] is “could elicit lymphocytes which specifically lysed target cells”. With “AILCWTFWV (listed as Homo sapiens) [Uroplakin Ib/B1]”, in assay [1], the “ability to evoke specific CTL responses” value is “could elicit lymphocytes which specifically lysed target cells”. On the same count and under the same terms, as for “KILLAYFIL (listed as Homo sapiens) [Uroplakin Ib/B6]”, the entry is “could elicit lymphocytes which specifically lysed target cells”. For the sequence “RLLAALCGA (listed as Homo sapiens) [BA-46-9]”, in assay [1], the “lysis of RMA-S-HhD targets loaded with homologous BA-46 peptide” value (from here on “lysis … with homologous BA-46 peptide”) amounted to 40%. For “ALFDIESKV (listed as Homo sapiens) [PSMA5]”, the “patients responding by decreased levels of serum PSA” value in assay [2] is reported as 7 patients. In the case of “ILNAYLVRV (listed as Homo sapiens) [Uroplakin III/3.2]”, in assay [1], the “ability to evoke specific CTL responses” value is on record as “could elicit lymphocytes which specifically lysed target cells”. Turning to “MLVGICLSI (listed as Homo sapiens) [Cripto-1/C8]”, the “lymphocyte response specifically lysing CRIPTO-1 peptide-loaded target cells” value in assay [1] is “can elicit lymphocyte response which specifically lyses CRIPTO-1 peptide-loaded target cells”. “FLSFHISNL (listed as Homo sapiens) [MUC-1/F6]”: the “lysis of RMA-S-HhD target cells loaded with MUC-1 peptide” value (from here on “lysis of RMA-S-HhD target cells loaded”) in assay [1] is listed as 15%. In the case of “GLQHWVPEL (listed as Homo sapiens) [BA-46-7]”, the “lysis … with homologous BA-46 peptide” value in assay [1] is reported as 60%. With “YMDGTMSQV [Tyrosinase, reference compound]”, the “lysis of loaded RMA-S-HhD cells, lytic units (LU30)” value in assay [1] (CTL from HhD mice immunized with human Uroplakin II peptides 1-7, substance loaded on targets) is given as “no lysis”. In addition, the “ability to evoke specific CTL responses” value in assay [1] was “no significant lysis”. For the same sequence, the “lysis of targets loaded with nonspecific peptides” value in assay [1] (overall, all immunized groups of Example 2) is recorded as “no lysis”. In assay [3] (CTL from HhD mice immunized with breast tumor extract peptide, E:T 100:1), the “specific lysis of loaded RMA-S-HhD cells” value is given as “No lysis”. The “lysis of T2 cells loaded with nonspecific peptides” value in assay [4] is “no lysis”. Turning to “NLFETPVEA (listed as Homo sapiens) [BA-46-6]”, the “lysis … with homologous BA-46 peptide” value in assay [1] is 40%. As to “FLLVGFAGA (listed as Homo sapiens) [Uroplakin III/3.3]”, the “ability to evoke specific CTL responses” value in assay [1] was “could elicit lymphocytes which specifically lysed target cells”. Take “MLAGICLSI (listed as Homo sapiens) [Cripto-1/C12]”: in assay [1], the “lymphocyte response specifically lysing CRIPTO-1 peptide-loaded target cells” value is “can elicit lymphocyte response which specifically lyses CRIPTO-1 peptide-loaded target cells”. Still for that read-out and setting: as for “KMVRFSYSV (listed as Homo sapiens) [Cripto-1/C10]”, the entry is “can elicit lymphocyte response which specifically lyses CRIPTO-1 peptide-loaded target cells”. With “ALASTAPPV (listed as Homo sapiens) [MUC-1/E6]”, the “lysis of RMA-S-HhD target cells loaded” value in assay [1] was determined as 15%. Further, the “recognition and lysis of peptide loaded targets by anti-tumor extract CTL” value (“recognition and lysis” for short) in assay [3] was “recognized and lysed”. Besides, the “peptide binding to HhD, stabilization of cell surface HhD (FACS)” value (from here on “peptide binding to HhD, stabilization”) in assay [5] is listed as “higher binding affinity”. For the same sequence, the “lysis of breast carcinoma line HhD transfectant (MDA-MB-157-HhD) relative to parental cells” value in assay [6] is given as “Preferential lysis”.

Consider “NLTISDVSV (listed as Homo sapiens) [MUC-1/A7]”, for which the “lysis of RMA-S-HhD target cells loaded” value in assay [1] is 30%. The “recognition and lysis” value in assay [3] was “recognized and lysed”. Also, in assay [5], the “peptide binding to HhD, stabilization” value is “higher binding affinity”. Moreover, the “lysis of breast carcinoma line HhD transfectant (MDA-MB-157-HhD) relative to parental cells” value in assay [6] was “Preferential lysis”. For “ILCWTFWVL (listed as Homo sapiens) [Uroplakin Ib/B5]”, the “ability to evoke specific CTL responses” value in assay [1] is “could elicit lymphocytes which specifically lysed target cells”.

Take “LLLTVLTVV (listed as Homo sapiens) [MUC-1/D6]”: the “lysis of RMA-S-HhD target cells loaded” value in assay [1] is 38%. Also, the “recognition and lysis” value in assay [3] is “recognized and lysed”. Further, in assay [5], the “peptide binding to HhD, stabilization” value is “higher binding affinity”. The “lysis of breast carcinoma line HhD transfectant (MDA-MB-157-HhD) relative to parental cells” value in assay [6] is given as “Preferential lysis”.

As to “KMARFSYSV (listed as Homo sapiens) [Cripto-1/C1]”, in assay [1], the “lymphocyte response specifically lysing CRIPTO-1 peptide-loaded target cells” value is “can elicit lymphocyte response which specifically lyses CRIPTO-1 peptide-loaded target cells”. In the case of “VLLSVAMFL (listed as Homo sapiens) [Uroplakin II/8]”, the “ability to evoke specific CTL responses” value in assay [1] is “could elicit lymphocytes which specifically lysed target cells”.
